Assay results published in patent publication US8686150B2 (Sanofi, priority 2011, dated 2014).

biological target: T1, human full-length recombinant PKC βII (Homo sapiens, UniProt P05771); assay: Determination of PKC βII inhibition (Caliper mobility-shift kinase assay, Fluorescein-RFARKGSLRQKNV peptide substrate); type: biochemical; conditions: example compounds at a final concentration of 1.14 μM (±0.15 μM)
T1 construct: Active human full-length recombinant PKC βII; purchased Invitrogen GmbH, Darmstadt, Germany
Method in brief: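 Compounds were tested at 1.14 μM final. Enzyme was activated by PS, DAG and CaCl2 in Hepes pH 7.4 with MgCl2, with substrate 3 μM and ATP 120 μM as pre-mix concentrations. After 60 min at 32 °C and an EDTA stop, Caliper separation gave fractional turnover, which was normalised to no-compound and no-enzyme controls.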

T1 sequence (P05771 1-673 isoform P05771-2): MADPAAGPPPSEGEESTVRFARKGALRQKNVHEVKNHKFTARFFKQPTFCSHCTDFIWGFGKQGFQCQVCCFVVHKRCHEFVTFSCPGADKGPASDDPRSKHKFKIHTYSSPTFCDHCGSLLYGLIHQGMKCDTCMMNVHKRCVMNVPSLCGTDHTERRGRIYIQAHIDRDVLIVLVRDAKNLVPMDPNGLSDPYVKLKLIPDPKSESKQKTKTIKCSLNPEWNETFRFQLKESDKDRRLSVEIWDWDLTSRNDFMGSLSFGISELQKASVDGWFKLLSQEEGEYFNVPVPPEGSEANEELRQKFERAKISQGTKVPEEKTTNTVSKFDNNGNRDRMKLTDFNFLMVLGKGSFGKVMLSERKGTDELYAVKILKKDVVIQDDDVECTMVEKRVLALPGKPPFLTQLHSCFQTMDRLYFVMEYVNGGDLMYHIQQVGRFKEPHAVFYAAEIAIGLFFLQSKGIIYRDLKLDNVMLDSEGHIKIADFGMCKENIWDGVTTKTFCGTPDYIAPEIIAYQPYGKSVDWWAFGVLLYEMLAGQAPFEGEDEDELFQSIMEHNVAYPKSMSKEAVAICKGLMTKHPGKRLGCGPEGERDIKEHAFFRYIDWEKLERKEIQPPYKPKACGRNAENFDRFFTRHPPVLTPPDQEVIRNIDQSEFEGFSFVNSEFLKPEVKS

inhibition at 1.14 µM | SMILES
97% | Cc1n[nH]c2nc(-c3ccc(O)cc3)cc(C(=O)N[C@@H]3CCCNC3)c12 [Example 222, 6-(4-Hydroxy-phenyl)-3-methyl-1H-pyrazolo[3,4-b]pyridine-4-carboxylic acid (R)-piperidin-3-ylamide]
95% | Cc1n[nH]c2nc(-c3ccc(O)cc3)cc(C(=O)N3CCNC[C@H]3C)c12 [Example 23, [6-(4-Hydroxy-phenyl)-3-methyl-1H-pyrazolo[3,4-b]pyridin-4-yl]-((R)-2-methyl-piperazin-1-yl)-methanone]
84% | Cc1n[nH]c2nc(-c3ccc(O)c(F)c3)cc(C(=O)N3CCNC(C)C3C)c12 (stereo not drawn) [Example 352, (2,3-Dimethyl-piperazin-1-yl)-[6-(3-fluoro-4-hydroxy-phenyl)-3-methyl-1H-pyrazolo[3,4-b]pyridin-4-yl]-methanone]
69% | CCc1n[nH]c2nc(-c3ccc(O)c(F)c3)cc(C(=O)N3CCNCC3)c12 [Example 2, [3-Ethyl-6-(3-fluoro-4-hydroxy-phenyl)-1H-pyrazolo[3,4-b]pyridin-4-yl]-piperazin-1-yl-methanone]
104% | Cc1n[nH]c2nc(-c3ccc(O)cc3)cc(C(=O)N3C[C@@H](C)NC[C@H]3C)c12 [Example 83, ((2R,5R)-2,5-Dimethyl-piperazin-1-yl)-[6-(4-hydroxy-phenyl)-3-methyl-1H-pyrazolo[3,4-b]pyridin-4-yl]-methanone]
84% | Cc1n[nH]c2nc(-c3ccc(O)cc3)cc(C(=O)NC3CCC(N)CC3)c12 (stereo not drawn) [Example 231, 6-(4-Hydroxy-phenyl)-3-methyl-1H-pyrazolo[3,4-b]pyridine-4-carboxylic acid (4-amino-cyclohexyl)-amide]
82% | Cc1n[nH]c2nc(-c3ccc(O)c(F)c3)cc(C(=O)NC3CNC3)c12 [Example 302, 6-(3-Fluoro-4-hydroxy-phenyl)-3-methyl-1H-pyrazolo[3,4-b]pyridine-4-carboxylic acid azetidin-3-ylamide]
84% | Cc1n[nH]c2nc(-c3ccc(O)cc3)cc(C(=O)NC3CNCC3c3ccccc3)c12 (stereo not drawn) [Example 45, 6-(4-Hydroxy-phenyl)-3-methyl-1H-pyrazolo[3,4-b]pyridine-4-carboxylic acid (4-phenyl-pyrrolidin-3-yl)-amide]
83% | CCC1(NC(=O)c2cc(-c3ccc(O)cc3)nc3[nH]nc(C)c23)CCCNC1 (stereo not drawn) [Example 115, 6-(4-Hydroxy-phenyl)-3-methyl-1H-pyrazolo[3,4-b]pyridine-4-carboxylic acid (3-ethyl-piperidin-3-yl)-amide]
52% | Cc1n[nH]c2nc(-c3ccc(O)c(F)c3)cc(C(=O)NCC3CCNC3)c12 (stereo not drawn) [Example 354, 6-(3-Fluoro-4-hydroxy-phenyl)-3-methyl-1H-pyrazolo[3,4-b]pyridine-4-carboxylic acid (pyrrolidin-3-ylmethyl)-amide]
97% | CC[C@H]1CNCCN1C(=O)c1cc(-c2ccc(O)cc2F)nc2[nH]nc(C)c12 [Example 431, ((S)-2-Ethyl-piperazin-1-yl)-[6-(2-fluoro-4-hydroxy-phenyl)-3-methyl-1H-pyrazolo[3,4-b]pyridin-4-yl]-methanone]
94% | Cc1cc(O)ccc1-c1cc(C(=O)N2CCNCC2c2ccc(F)cc2F)c2c(C)n[nH]c2n1 (stereo not drawn) [Example 152, [2-(2,4-Difluoro-phenyl)-piperazin-1-yl]-[6-(4-hydroxy-2-methyl-phenyl)-3-methyl-1H-pyrazolo[3,4-b]pyridin-4-yl]-methanone]
21% | O=C(c1cc(-c2ccc(O)cc2)nc2[nH]nc(C(F)(F)F)c12)N1CCC2CNCC21 (stereo not drawn) [Example 408, (Hexahydro-pyrrolo[3,4-b]pyrrol-1-yl)-[6-(4-hydroxy-phenyl)-3-trifluoromethyl-1H-pyrazolo[3,4-b]pyridin-4-yl]-methanone]
50% | CCc1n[nH]c2nc(-c3ccc(O)cc3)cc(C(=O)N3CC[C@H](N(C)C)C3)c12 [Example 177, ((S)-3-Dimethylamino-pyrrolidin-1-yl)-[3-ethyl-6-(4-hydroxy-phenyl)-1H-pyrazolo[3,4-b]pyridin-4-yl]-methanone]
80% | Cc1n[nH]c2nc(-c3ccc(O)cc3F)cc(C(=O)N3CCC[C@@H](CN)C3)c12 [Example 59, ((S)-3-Aminomethyl-piperidin-1-yl)-[6-(2-fluoro-4-hydroxy-phenyl)-3-methyl-1H-pyrazolo[3,4-b]pyridin-4-yl]-methanone]
100% | CCC1(NC(=O)c2cc(-c3ccc(O)cc3F)nc3[nH]nc(C)c23)CCCNC1 (stereo not drawn) [Example 62, 6-(2-Fluoro-4-hydroxy-phenyl)-3-methyl-1H-pyrazolo[3,4-b]pyridine-4-carboxylic acid (3-ethyl-piperidin-3-yl)-amide]
100% | Cc1cc(O)ccc1-c1cc(C(=O)N2CCNCC2c2cc(F)cc(F)c2)c2c(C)n[nH]c2n1 (stereo not drawn) [Example 136, [2-(3,5-Difluoro-phenyl)-piperazin-1-yl]-[6-(4-hydroxy-2-methyl-phenyl)-3-methyl-1H-pyrazolo[3,4-b]pyridin-4-yl]-methanone]
100% | CCC1(CC)CNCCN1C(=O)c1cc(-c2ccc(O)cc2F)nc2[nH]nc(C)c12 [Example 436, (2,2-Diethyl-piperazin-1-yl)-[6-(2-fluoro-4-hydroxy-phenyl)-3-methyl-1H-pyrazolo[3,4-b]pyridin-4-yl]-methanone]
68% | Cc1n[nH]c2nc(-c3ccc(O)cc3)cc(C(=O)NC(CCN)c3ccccc3)c12 (stereo not drawn) [Example 131, 6-(4-Hydroxy-phenyl)-3-methyl-1H-pyrazolo[3,4-b]pyridine-4-carboxylic acid (3-amino-1-phenyl-propyl)-amide]
95% | CCC[C@@H]1CN(C(=O)c2cc(-c3ccc(O)cc3)nc3[nH]nc(C)c23)CCN1 [Example 195, [6-(4-Hydroxy-phenyl)-3-methyl-1H-pyrazolo[3,4-b]pyridin-4-yl]-((R)-3-propyl-piperazin-1-yl)-methanone]
62% | Cc1n[nH]c2nc(-c3ccc(O)cc3)cc(C(=O)NC(C)(C)C(C)(C)N)c12 [Example 134, 6-(4-Hydroxy-phenyl)-3-methyl-1H-pyrazolo[3,4-b]pyridine-4-carboxylic acid (2-amino-1,1,2-trimethyl-propyl)-amide]
74% | Cc1n[nH]c2nc(-c3ccc(O)c(F)c3)cc(C(=O)N3CCNCC3Cc3ccccc3)c12 (stereo not drawn) [Example 300, (2-Benzyl-piperazin-1-yl)-[6-(3-fluoro-4-hydroxy-phenyl)-3-methyl-1H-pyrazolo[3,4-b]pyridin-4-yl]-methanone]
82% | COc1ccccc1C1CNCCN1C(=O)c1cc(-c2ccc(O)cc2)nc2[nH]nc(C)c12 (stereo not drawn) [Example 79, [6-(4-Hydroxy-phenyl)-3-methyl-1H-pyrazolo[3,4-b]pyridin-4-yl]-[2-(2-methoxy-phenyl)-piperazin-1-yl]-methanone]

SMILES | inhibition at 1.14 µM
Cc1n[nH]c2nc(-c3ccc(O)cc3)cc(C(=O)NC3CC4CCCC(C3)N4C)c12 (stereo not drawn) [Example 223, 6-(4-Hydroxy-phenyl)-3-methyl-1H-pyrazolo[3,4-b]pyridine-4-carboxylic acid (9-methyl-9-aza-bicyclo[3.3.1]non-3-yl)-amide] | 74%
